Measurements: patent publication US7022732B2, “Propanolamine derivative having 1, 4-benzodioxane ring” (Nisshin Pharma Inc., priority 2001, dated 2006)

Molecular target: T1, human β3 adrenergic receptor (Homo sapiens, UniProt P13945)
T1 construct: expressed in transfected cells; host or cells: CHO cells (clone G4-I, kept under Geneticin selection)
Assay: cAMP production in G4-I cells, stimulating activity of human β3 adrenergic receptor (cAMP EIA)
Assay type: cell-based
Conditions: cAMP production relative to isoproterenol maximum, CHO cells (G4-I) expressing human β3 receptor
Description: Representative compounds of the invention were assayed for their stimulating activity of human β3 adrenergic receptor. In the tests, there was used G4-I cloned with CHO cells expressing human β3 adrenergic receptor genes. A cAMP EIA kit for use was available from Amersham Farmacia.
G4-I was incubated under the atmosphere of 5% CO2 at 37° C. in a Han's F12 Nutrient Mixture medium containing 10% fetal calf serum, penicillin 100 U/mL, streptomycin 100 μg/mL, amphotericin B 25 μg/mL and Geneticin 400 μg/mL. When the reaction for cAMP production was carried out, frozen cells stocked were incubated for 3 days and then treated with trypsin to prepare a cell suspension. The cell suspension was diluted to 2×10^5 cells/mL with the medium. Then 1 ml each of the diluted suspension was dispensed into a 12-well plate dish.
The cells cultured for 24 hours were used to carry out the cAMP production reaction.
The culture medium was removed from the cells incubated on the 12-well plate dish. The cells were washed twice with 1 mL of Wash Buffer previously warmed to 37° C. and then 0.9 mL of Reaction Buffer was added. Cultivation was carried out on a water bath at 37° C. for 5 minutes and then 0.1 mL of an aqueous solution of the test compound or isoproterenol was added thereto. Reaction was further allowed to take place at 37° C. for 30 minutes. The reaction solution was taken out and then washed twice with 2 mL of D-PBS(-) followed by addition of 1 mL of the Extraction Buffer. The extraction procedure was performed using a plate mixer at 4° C. for 1 hour. The extract was stored at −20° C.
The cell extract frozen at −20° C. was thawed at 4° C. The cAMP of the extract in each well was assayed by means of a cAMP-EIA kit manufactured by Amersham Farmacia. Assay was performed in accordance with the manual attached to the kit. Adsorbance in a 96-well plate was determined using a microplate reader (Model Spectra MAX 250) manufactured by Molecular Device.
The protein amount of the above cell extract was assayed according to the dye-binding method using a CBB solution for quantitative determination of protein (available from Bio-Rad). Bovine serum albumin was used as a protein standard, and absorbance was determined using the above microplate reader (Model Spectra MAX 250) manufactured by Molecular Device.
Determination of cAMP and protein amounts was carried out in duplicate and mean values were adopted as measured values. The cAMP production amount of each sample was represented in terms of a numerical value of the cAMP amount (pmol) divided by cell protein amount (mg) (pmol/mg protein). […] For each sample, cAMP production amount was calculated and a relative cAMP production amount to the maximum cAMP production amount of isoproterenol (% of isoproterenol Max) was determined.

T1 sequence (P13945 whole entry): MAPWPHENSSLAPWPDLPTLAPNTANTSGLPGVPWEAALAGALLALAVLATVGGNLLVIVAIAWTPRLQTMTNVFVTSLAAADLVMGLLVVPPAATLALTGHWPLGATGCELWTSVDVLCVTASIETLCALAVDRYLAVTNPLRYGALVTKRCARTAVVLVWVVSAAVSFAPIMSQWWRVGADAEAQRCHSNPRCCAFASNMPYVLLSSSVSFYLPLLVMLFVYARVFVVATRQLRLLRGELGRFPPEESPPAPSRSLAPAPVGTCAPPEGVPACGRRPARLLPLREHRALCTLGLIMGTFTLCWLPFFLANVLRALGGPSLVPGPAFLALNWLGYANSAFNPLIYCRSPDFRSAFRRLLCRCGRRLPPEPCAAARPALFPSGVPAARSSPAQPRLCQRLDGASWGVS

**Q.** With `COc1cc(O)ccc1OC[C@@H](O)CN[C@H](C)Cc1ccc2c(c1)OC[C@H](C(=O)O)O2` [Example 16, 6-[2-(R)-[2-(S)-Hydroxy-3-(4-hydroxy-2-methoxyphenoxy)-propylamino]propyl]-2,3-dihydro-1,4-benzodioxine-2-(R)-carboxylic acid] as the molecule, how does the “Intrinsic Activity (% of ISP)” value (test compound 1 μM) read?
**A.** Its value is 61 % of ISP.

**Q.** With `C[C@H](Cc1ccc2c(c1)OC[C@H](C(=O)O)O2)NC[C@H](O)COc1ccc(O)c(NS(C)(=O)=O)c1` [Example 2, 6-[2-(R)-[2-(S)-Hydroxy-3-(4-hydroxy-3-methanesulfonamidophenoxy)propylamino]propyl]-2,3-dihydro-1,4-benzodioxine-2-(R)-carboxylic acid] as the molecule, how does the “Intrinsic Activity (% of ISP)” value (test compound 1 μM) read?
**A.** Its value is 76 % of ISP.

**Q.** Which “Intrinsic Activity (% of ISP)” value (test compound 1 μM) does the source give for `CS(=O)(=O)Nc1cc(OC[C@@H](O)CNCCc2ccc3c(c2)OC[C@H](C(=O)O)O3)ccc1O` [Example 4, 6-[2-[2-(S)-Hydroxy-3-(4-hydroxy-3-methanesulfonamido-phenoxy]propylamino]ethyl]-2,3-dihydro-1,4-benzodioxine-2-(R)-carboxylic acid] here?
**A.** Its value is 98 % of ISP.

**Q.** With `C[C@H](Cc1ccc2c(c1)OC[C@H](C(=O)O)O2)NC[C@H](O)COc1ccc(O)cc1` [Example 12, 6-[2-(R)-[2-(S)-Hydroxy-3-(4-hydroxyphenoxy)propylamino]-propyl]-2,3-dihydro-1,4-benzodioxine-2-(R)-carboxylic acid] as the molecule, how does the “Intrinsic Activity (% of ISP)” value (test compound 10 μM) read?
**A.** The value was 73 % of ISP.
